Experimental data reported in patent US9708255B2, “(bis)urea and (bis)thiourea compounds as epigenic modulators of lysine-specific demethylase 1 and methods of treating disorders” (priority 2009, dated 2017).
Each block holds one compound with its values, some of them ahead of it.

Assays:
global H3K4me2 [1] = conditions: P19 cell line; cited from earlier work
recombinant human LSD1 = recombinant human LSD1 (Homo sapiens, UniProt O60341); assay: LSD1 demethylase assay, luminol-dependent chemiluminescence (H2O2 production); conditions: read-out: % LSD1 activity remaining, treatment with each analogue at 10 μM
Protocol: Percent of LSD1 activity remaining was determined following 24-hour treatment with 10 mM of each test compound as determined by the luminol-dependent chemiluminescence method.
The ability of the target (bis)ureas and (bis)thioureas to inhibit LSD1 was determined in an assay procedure utilizing the recombinant human enzyme. Expression and purification of LSD1 were conducted as previously reported. Enzymatic activity of LSD1 in the presence of target compounds was determined using luminol-dependent chemiluminescence to measure the production of H2O2, as previously described. […] Full-length human LSD1 cDNA was subcloned into the pET15b bacterial expression vector (Novagen, Madison, Wis.) in frame with an N-terminal 6×HIS-tag and transformed into the BL21(DE3) strain of Escherichia coli. Following selection, expression and purification of recombinant LSD1 protein were performed as previously described. Briefly, expression of LSD1-HIS protein was induced by 1 mM IPTG for 6 h at 25° C. The HIS-tagged protein was purified using Ni-NTA affinity purification resin and column as recommended by the manufacturer (Qiagen, Valencia, Calif.). Bound protein was eluted by imidazole and the eluate was dialyzed in PBS at 4° C. […] The integral values were calibrated against standards containing known concentrations of H2O2, and the activities expressed as pmols H2O2/mg protein/min. […]

SFRP2 mRNA = assay: Re-expression of SFRP2 mRNA by qPCR in Calu-6 cells; format: cell-based, human; conditions: Calu-6, 24 hours; for dose dependence of SFRP2 expression increase: 5 vs 10 μM
From the text: (§1) The ability of compounds 25-27 to induce the re-expression of aberrantly silenced tumor suppressor genes in vitro was next measured using the Calu-6 human lung carcinoma cell line. The tumor suppressor genes SFRP2 and GATA4 were chosen because they are known to be under expressed in human lung cancer, and because they are thought to play a role in tumorigenesis when silenced. Thus, the genes coding for these proteins are well-documented LSD1 targets. […]. […]. The increase in GATA4 mRNA caused by […] 27 is reproducible, but is not statistically significant (P>0.05).
(§2) RNA was extracted using TRIzol reagents (Invitrogen, Carlsbad, Calif.). First-strand cDNA was synthesized using SuperScript III reverse transcriptase with an oligo(dT) primer (Invitrogen). qPCR was performed using the following primers: SFRP2 sense, 5′AAGCCTGCAAAAATAAAAATGATG; SFRP2 antisense, 5′TGTAAATGGTCTTGCTCTTGGTCT (annealing at 57.4° C.); GATA4 sense, 5′GGCCGCCCGACACCCCAATCT; GATA4 antisense, 5′ ATAGTGACCCGTCCCATCTCG (annealing at 64° C.). qPCR was performed in a MyiQ single color real-time PCR machine (Bio-Rad, Hercules, Calif.) with GAPDH as an internal control.

global H3K4me2 [2] = assay: Global H3K4me2 level by quantitative Western blot in Calu-6 cells; format: cell-based, human; conditions: Calu-6, 10 μM
Protocol: (§3) FIG. 2. Effect of compounds 25-27 on the expression of global H3K4me1 and H3K4me2. […] Proliferating cell nuclear antigen (PCNA) was used as a loading control. Shown are Western blot images from a single representative experiment performed in triplicate. Relative protein expression levels were determined by quantitative Western analysis using the Odyssey infrared detection system shown as bar graphs. The results represent the mean of three treatments ±SD. The protein expression level for control samples was set to a value of 1.
(§4) The ability of the target (bis)ureas and (bis)thioureas to inhibit LSD1 was determined in an assay procedure utilizing the recombinant human enzyme. Expression and purification of LSD1 were conducted as previously reported. Enzymatic activity of LSD1 in the presence of target compounds was determined using luminol-dependent chemiluminescence to measure the production of H2O2, as previously described. The results of these experiments are summarized in Table 1, and graphically in FIG. 1. […] Subsequent experiments were conducted in the Calu-6 human anaplastic non-small cell lung carcinoma line because it has a highly reproducible response to epigenetic modulation, and because it is known that various tumor suppressor genes are silenced in this line. In order for synthetic analogues to be effective at the cellular level, any observed decreases in cellular LSD1 activity should be accompanied by an increase in global H3K4me1 and H3K4me2 content. […] The reduction in H3K4me2 and corresponding increase in H3K4me1 by 26 at both 24 and 48 hours cannot be readily explained, and is the subject of continuing investigation.
(§5) Cytoplasmic and nuclear fractions were prepared for Western blot analysis using the NE-PER™ Nuclear and Cytoplasmic Extraction Kit (Pierce, Rockford, Ill.). Primary antibodies against H3K4me2 were from Millipore. The pCNA monoclonal antibody was purchased from Oncogene Research Products (Cambridge, Mass.). Dye-conjugated secondary antibodies were used for quantification of Western blot results using the Odyssey Infrared Detection system and software (LI-COR Biosciences, Lincoln, Nebr.).

GATA4 mRNA = assay: Re-expression of GATA4 mRNA by qPCR in Calu-6 cells; format: cell-based, human; conditions: Calu-6, 24 hours; for effect on GATA4 levels: 5 and 10 μM
From the text: as §1, §2

global H3K4me2 [3] = assay: Global H3K4me2 in HCT116 human colon tumor cells; format: cell-based; conditions: HCT116 human colon tumor cells (data not shown)
global H3K4me1 = assay: Global H3K4me1 level by quantitative Western blot in Calu-6 cells; format: cell-based, human; conditions: Calu-6, 10 μM
Protocol: as §3, §4, §5

[4] = biological target: recombinant LSD1/CoRest complex (Homo sapiens, UniProt O60341); conditions: cited from earlier work

Structure (SMILES): N[C@@H]1C[C@H]1c1ccccc1 (racemic) [tranylcypromine]
global levels of H3K4me2 (global H3K4me2 [1]): increase

remaining activity at 10 µM (recombinant human LSD1): 92.2%
Structure (SMILES): S=C(NCCCNCCCNCCCNC(=S)NCCC(c1ccccc1)c1ccccc1)NCCC(c1ccccc1)c1ccccc1 [Compound 20, 1,11-bis-{3-[1-(3,3-diphenylpropyl)thioureado]}-4,8-diazaundecane]

Structure (SMILES): S=C(NCCCNCCCCCCCNCCCNC(=S)NCC(c1ccccc1)c1ccccc1)NCC(c1ccccc1)c1ccccc1 [Compound 25, 1,15-bis-{3-[1-(2,2-diphenylethyl)thioureado]}-4,12-diazapentadecane]
dose dependence of SFRP2 expression increase (SFRP2 mRNA): dose dependent
global H3K4me2 level (global H3K4me2 [2]; 24 hours): significant increases
global H3K4me2 level (global H3K4me2 [2]; 48 hours): most dramatic increases
effect on GATA4 levels (GATA4 mRNA): did not produce significant increases
increase in global H3K4me2 (global H3K4me2 [3]): 17.4 fold
global H3K4me1 level (global H3K4me1; 24 hours): significant increases
global H3K4me1 level (global H3K4me1; 48 hours): most dramatic increases

Structure (SMILES): S=C(NCCCNCCCCNCCCNC(=S)NCC(c1ccccc1)c1ccccc1)NCC(c1ccccc1)c1ccccc1 [Compound 26, 1,12-bis-{3-[1-(2,2-diphenylethyl)thioureado]}-4,9-diazadodecane]
dose dependence of SFRP2 expression increase (SFRP2 mRNA): same level
global H3K4me2 level (global H3K4me2 [2]; 24 hours): decreased
global H3K4me2 level (global H3K4me2 [2]; 48 hours): reduction
effect on GATA4 levels (GATA4 mRNA): did not produce significant increases
global H3K4me1 level (global H3K4me1; 24 hours): significant increase
global H3K4me1 level (global H3K4me1; 48 hours): increase

Structure (SMILES): S=C(NCCCNCCCNCCCNC(=S)NCC(c1ccccc1)c1ccccc1)NCC(c1ccccc1)c1ccccc1 [Compound 27, 1,11-bis-{3-[1-(2,2-diphenylethyl)thioureado]}-4,8-diazaundecane]
increase in SFRP2 expression (SFRP2 mRNA; 10 mM (so in the source)): 4.8 fold
dose dependence of SFRP2 expression increase (SFRP2 mRNA): dose dependent
global H3K4me2 level (global H3K4me2 [2]; 24 hours): significant increases
effect on GATA4 mRNA (GATA4 mRNA; 5 μM): no significant effect
increase in GATA4 mRNA (GATA4 mRNA; 10 μM (b97 prints 10 mM)): 1.3 fold
global H3K4me1 level (global H3K4me1; 24 hours): significant increases

remaining activity at 10 µM (recombinant human LSD1): 26.1%
Structure (SMILES): O=C(NCCCNCCCCNCCCNC(=O)NC(=O)N(c1ccccc1)c1ccccc1)NC(=O)N(c1ccccc1)c1ccccc1 [Compound 31, 1,12-bis-{5-[1-(N,N-diphenyl)carbamyl]ureado}-4,9-diazadodecane]

Structure (SMILES): NNCCc1ccccc1 [phenelzine]
global levels of H3K4me2 (global H3K4me2 [1]): increase
nucleosomal demethylation [4]: inactivate
